# Assay results reported in ChEMBL document CHEMBL5465560, “Selectivity Literature for EUbOPEN Chemogenomic Library” (2024).
# Experiments:
# [1] = target: cAMP-dependent protein kinase catalytic subunit beta (Homo sapiens) (UniProt P22694); assay: Selectivity interaction (KinomeScan (DiscoverX)) EUB0000607a PRKACB; conditions: at 10 µM
# [2] = target: Dual specificity protein kinase CLK2 (Homo sapiens, UniProt P49760); assay: Selectivity interaction (SelectScreen profiling (Invitrogen)) EUB0000607a CLK2; conditions: at 2 µM
# [3] = target: Casein kinase I isoform alpha (Homo sapiens, UniProt P48729); assay: Selectivity interaction (ActivX KiNativ screen (kinase selectivity in THP-1 cell lysates)) EUB0000639a CSNK1A1; assay type: subcellular; conditions: lysate, at 0.04 µM
# Casein kinase I isoform alpha, sequence (P48729 2-337 limits assumed): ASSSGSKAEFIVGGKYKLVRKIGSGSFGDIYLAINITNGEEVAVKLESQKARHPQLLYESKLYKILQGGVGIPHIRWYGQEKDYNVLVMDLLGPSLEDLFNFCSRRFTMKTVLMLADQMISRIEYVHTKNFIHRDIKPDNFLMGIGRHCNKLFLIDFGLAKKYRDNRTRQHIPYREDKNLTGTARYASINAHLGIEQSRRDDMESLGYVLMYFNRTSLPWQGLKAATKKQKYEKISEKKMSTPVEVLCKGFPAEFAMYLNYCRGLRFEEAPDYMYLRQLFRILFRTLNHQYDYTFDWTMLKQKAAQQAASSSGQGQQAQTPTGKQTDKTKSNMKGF
# [4] = target: Ribosomal protein S6 kinase alpha-6 (Homo sapiens, UniProt Q9UK32); assay: Selectivity interaction (KinomeScan (DiscoverX)) EUB0001049a RPS6KA6; conditions: at 1 µM
# Ribosomal protein S6 kinase alpha-6, sequence (Q9UK32 whole entry): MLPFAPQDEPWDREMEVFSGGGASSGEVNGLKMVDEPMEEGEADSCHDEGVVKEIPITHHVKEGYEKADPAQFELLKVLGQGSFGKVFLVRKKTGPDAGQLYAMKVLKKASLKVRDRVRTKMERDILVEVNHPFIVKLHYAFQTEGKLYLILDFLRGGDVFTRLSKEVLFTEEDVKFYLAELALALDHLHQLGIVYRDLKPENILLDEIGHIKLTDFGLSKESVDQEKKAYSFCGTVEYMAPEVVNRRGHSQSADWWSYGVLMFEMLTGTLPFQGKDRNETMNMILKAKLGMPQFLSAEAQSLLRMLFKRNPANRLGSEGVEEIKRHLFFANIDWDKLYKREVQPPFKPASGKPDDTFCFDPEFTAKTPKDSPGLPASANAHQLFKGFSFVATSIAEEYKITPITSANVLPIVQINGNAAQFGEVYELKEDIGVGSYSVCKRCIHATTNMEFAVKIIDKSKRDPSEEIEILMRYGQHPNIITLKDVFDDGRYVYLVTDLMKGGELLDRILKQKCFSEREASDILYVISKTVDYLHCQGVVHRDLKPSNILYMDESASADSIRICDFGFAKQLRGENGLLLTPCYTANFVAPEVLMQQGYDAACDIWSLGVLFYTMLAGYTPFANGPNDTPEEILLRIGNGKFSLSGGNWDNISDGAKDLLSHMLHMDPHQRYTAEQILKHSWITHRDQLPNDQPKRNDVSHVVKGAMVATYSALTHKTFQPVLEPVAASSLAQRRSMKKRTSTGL
# [5] = target: Myosin-IIIa (Homo sapiens) (UniProt Q8NEV4); assay: Selectivity interaction (Ambit KINOMEscan and KiNATiv profiling in Jurkat cells) EUB0000090b MYO3A; assay type: cell-based; conditions: at 1 µM
# Myosin-IIIa (Homo sapiens), sequence (Q8NEV4 whole entry): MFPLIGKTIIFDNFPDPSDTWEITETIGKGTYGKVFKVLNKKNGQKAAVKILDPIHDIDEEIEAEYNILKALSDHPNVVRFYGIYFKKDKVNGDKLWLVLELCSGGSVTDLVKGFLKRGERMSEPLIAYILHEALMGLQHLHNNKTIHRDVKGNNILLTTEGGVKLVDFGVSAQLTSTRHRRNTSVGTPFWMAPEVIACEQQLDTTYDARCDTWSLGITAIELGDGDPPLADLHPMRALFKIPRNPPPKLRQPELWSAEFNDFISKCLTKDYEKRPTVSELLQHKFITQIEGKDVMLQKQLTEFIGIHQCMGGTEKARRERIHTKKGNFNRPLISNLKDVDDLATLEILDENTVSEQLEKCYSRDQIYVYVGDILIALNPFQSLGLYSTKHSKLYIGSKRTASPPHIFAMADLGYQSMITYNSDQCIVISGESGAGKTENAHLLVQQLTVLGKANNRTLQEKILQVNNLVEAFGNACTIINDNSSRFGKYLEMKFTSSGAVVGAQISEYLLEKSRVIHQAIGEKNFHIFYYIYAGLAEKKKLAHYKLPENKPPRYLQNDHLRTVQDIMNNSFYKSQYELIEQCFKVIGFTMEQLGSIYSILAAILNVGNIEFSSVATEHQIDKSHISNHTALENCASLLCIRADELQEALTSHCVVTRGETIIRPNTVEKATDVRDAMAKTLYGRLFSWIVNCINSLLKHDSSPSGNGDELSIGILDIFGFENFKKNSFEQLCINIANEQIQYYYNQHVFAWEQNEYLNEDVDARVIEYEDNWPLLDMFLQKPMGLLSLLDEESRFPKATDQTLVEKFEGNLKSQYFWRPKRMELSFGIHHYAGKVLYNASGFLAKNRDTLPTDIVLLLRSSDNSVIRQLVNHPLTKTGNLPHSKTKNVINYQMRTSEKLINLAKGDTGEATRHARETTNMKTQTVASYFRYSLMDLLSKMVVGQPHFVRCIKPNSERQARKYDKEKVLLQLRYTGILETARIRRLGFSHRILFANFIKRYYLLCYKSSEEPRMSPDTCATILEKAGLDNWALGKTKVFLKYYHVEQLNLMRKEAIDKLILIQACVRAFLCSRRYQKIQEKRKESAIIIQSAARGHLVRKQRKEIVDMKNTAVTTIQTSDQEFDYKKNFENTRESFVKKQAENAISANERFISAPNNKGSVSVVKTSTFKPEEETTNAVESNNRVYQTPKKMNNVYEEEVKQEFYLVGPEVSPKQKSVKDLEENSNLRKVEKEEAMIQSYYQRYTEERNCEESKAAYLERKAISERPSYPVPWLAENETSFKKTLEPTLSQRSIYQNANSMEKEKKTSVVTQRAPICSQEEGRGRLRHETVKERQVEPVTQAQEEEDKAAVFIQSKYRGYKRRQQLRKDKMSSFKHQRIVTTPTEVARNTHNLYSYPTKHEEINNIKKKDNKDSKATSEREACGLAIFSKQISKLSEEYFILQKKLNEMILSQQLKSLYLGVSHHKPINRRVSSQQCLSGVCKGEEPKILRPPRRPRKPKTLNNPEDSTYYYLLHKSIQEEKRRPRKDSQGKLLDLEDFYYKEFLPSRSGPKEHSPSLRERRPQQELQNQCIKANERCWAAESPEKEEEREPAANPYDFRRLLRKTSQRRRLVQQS
# [6] = target: Platelet-derived growth factor receptor alpha (Homo sapiens, UniProt P16234); assay: Selectivity interaction (Ambit KINOMEscan and KiNATiv profiling in Jurkat cells) EUB0000090b PDGFRA; assay type: cell-based; conditions: at 1 µM
# Platelet-derived growth factor receptor alpha, sequence (P16234 whole entry): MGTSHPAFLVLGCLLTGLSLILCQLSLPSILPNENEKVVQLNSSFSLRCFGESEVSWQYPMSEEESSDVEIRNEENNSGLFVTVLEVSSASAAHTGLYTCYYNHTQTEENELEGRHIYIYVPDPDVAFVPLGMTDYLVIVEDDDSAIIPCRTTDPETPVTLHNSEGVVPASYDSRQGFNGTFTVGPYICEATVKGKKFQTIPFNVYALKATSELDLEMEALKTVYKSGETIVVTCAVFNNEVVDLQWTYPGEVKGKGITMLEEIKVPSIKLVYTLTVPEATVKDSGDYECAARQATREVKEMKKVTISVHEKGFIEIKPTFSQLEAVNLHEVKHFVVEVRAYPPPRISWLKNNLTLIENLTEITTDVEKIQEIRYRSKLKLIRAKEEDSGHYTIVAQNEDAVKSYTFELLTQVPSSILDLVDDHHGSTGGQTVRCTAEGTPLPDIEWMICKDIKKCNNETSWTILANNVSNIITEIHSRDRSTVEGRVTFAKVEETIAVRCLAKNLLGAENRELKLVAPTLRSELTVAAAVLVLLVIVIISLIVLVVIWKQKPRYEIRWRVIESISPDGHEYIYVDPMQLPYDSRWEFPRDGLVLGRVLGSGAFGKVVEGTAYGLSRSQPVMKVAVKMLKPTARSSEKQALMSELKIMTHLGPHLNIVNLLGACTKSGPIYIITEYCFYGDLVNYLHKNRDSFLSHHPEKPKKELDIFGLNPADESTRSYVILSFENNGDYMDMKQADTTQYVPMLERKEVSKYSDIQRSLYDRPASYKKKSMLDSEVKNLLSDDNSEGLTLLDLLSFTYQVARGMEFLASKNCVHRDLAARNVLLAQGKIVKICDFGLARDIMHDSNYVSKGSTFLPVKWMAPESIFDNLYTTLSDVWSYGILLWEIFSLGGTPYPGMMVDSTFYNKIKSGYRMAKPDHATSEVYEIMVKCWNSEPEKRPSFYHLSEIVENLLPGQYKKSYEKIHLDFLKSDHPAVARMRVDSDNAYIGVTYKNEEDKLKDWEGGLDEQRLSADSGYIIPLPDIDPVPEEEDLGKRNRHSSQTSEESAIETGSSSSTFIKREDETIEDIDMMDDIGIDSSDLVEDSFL
# [7] = system: T1, Receptor-type tyrosine-protein kinase FLT3 (Homo sapiens), P36888 [K663Q]; assay: (§1) Selectivity interaction (KinomeScan (DiscoverX)) EUB0000045b FLT3
# T1 sequence (whole entry): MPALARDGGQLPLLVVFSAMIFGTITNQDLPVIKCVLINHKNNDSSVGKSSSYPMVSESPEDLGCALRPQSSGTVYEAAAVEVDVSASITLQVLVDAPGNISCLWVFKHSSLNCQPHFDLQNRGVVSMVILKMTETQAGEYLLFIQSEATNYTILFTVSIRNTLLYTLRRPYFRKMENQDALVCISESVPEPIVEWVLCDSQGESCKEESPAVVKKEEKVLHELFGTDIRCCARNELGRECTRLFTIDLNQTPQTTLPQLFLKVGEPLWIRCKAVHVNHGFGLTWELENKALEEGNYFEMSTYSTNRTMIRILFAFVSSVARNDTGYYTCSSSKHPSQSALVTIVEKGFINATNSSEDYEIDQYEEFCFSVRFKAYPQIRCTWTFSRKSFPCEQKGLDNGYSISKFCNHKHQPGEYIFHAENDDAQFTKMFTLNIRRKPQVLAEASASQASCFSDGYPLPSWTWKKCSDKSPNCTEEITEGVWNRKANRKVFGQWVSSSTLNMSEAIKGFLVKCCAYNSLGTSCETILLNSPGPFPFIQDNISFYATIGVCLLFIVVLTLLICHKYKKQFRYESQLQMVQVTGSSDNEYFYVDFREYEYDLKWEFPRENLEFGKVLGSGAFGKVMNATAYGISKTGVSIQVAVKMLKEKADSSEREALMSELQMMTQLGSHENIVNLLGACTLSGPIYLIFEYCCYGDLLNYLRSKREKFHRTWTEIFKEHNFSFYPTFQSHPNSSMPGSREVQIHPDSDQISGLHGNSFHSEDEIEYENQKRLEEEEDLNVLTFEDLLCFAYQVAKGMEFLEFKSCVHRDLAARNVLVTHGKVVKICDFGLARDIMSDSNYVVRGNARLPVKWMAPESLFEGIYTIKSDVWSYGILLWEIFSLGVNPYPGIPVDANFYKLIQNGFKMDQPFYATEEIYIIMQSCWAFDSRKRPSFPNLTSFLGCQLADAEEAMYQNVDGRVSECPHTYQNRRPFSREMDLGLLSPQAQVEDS
# [8] = target: Receptor-type tyrosine-protein kinase FLT3 (Homo sapiens) (UniProt P36888); assay: as §1
# [9] = target: Protein arginine N-methyltransferase 3 (Homo sapiens, UniProt O60678); assay: Selectivity interaction (Scintillation proximity assays) EUB0000230b PRMT3
# Protein arginine N-methyltransferase 3, sequence (O60678 whole entry): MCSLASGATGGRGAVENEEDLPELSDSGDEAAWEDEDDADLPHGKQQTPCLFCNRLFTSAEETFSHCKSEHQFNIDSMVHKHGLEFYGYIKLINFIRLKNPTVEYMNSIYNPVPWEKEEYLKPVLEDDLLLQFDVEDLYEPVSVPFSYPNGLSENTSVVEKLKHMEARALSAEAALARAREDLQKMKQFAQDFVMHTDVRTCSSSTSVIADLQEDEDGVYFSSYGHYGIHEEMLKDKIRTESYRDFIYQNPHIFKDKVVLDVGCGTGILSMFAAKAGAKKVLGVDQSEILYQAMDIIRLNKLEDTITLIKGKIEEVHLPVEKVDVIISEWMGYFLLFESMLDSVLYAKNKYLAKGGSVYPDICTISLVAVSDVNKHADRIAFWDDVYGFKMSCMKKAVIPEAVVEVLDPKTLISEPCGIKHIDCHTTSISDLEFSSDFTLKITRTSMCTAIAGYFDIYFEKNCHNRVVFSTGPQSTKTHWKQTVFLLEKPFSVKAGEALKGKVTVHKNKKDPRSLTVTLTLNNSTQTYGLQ
# [10] = target: Serine/threonine-protein kinase SIK2 (Homo sapiens) (UniProt Q9H0K1); assay: Selectivity interaction (KinomeScan (DiscoverX)) EUB0000092b SIK2; conditions: at 10 µM
# [11] = target: T2, Ephrin type-A receptor 6 (Homo sapiens) (UniProt Q9UF33); assay: Selectivity interaction (KinomeScan (DiscoverX)) EUB0000618a EPHA6; conditions: at 10 µM
# T2 sequence (whole entry): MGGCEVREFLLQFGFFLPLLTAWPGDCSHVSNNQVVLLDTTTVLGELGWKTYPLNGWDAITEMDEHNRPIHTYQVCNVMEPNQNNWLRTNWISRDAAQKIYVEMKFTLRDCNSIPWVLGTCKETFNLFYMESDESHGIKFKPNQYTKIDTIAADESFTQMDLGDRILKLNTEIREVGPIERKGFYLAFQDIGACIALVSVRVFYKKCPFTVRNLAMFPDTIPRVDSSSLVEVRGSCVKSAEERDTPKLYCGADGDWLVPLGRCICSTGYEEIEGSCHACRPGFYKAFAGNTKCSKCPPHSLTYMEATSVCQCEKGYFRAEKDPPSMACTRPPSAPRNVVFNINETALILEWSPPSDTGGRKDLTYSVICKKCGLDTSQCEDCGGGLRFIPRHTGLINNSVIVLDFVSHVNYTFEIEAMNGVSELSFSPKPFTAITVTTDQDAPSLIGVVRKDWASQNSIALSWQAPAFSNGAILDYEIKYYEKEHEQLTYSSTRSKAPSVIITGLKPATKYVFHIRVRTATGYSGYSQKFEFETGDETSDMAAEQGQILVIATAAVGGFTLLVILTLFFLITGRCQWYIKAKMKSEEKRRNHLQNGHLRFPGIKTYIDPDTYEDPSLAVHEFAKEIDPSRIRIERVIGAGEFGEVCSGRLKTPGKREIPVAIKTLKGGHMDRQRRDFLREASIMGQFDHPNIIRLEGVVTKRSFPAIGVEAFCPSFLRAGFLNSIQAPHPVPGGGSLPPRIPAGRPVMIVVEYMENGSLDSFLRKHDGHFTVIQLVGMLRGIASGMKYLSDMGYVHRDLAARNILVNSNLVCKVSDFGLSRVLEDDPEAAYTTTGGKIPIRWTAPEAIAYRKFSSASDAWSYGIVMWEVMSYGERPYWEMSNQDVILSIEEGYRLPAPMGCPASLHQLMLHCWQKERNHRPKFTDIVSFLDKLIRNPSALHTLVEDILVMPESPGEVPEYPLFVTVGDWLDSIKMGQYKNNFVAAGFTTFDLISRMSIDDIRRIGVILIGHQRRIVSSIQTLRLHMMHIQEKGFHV
# [12] = target: Serine/threonine-protein kinase PAK 6 (Homo sapiens) (UniProt Q9NQU5); assay: Selectivity interaction (KinomeScan (DiscoverX)) EUB0001619a PAK6; conditions: at 1 µM
# Serine/threonine-protein kinase PAK 6 (Homo sapiens), sequence (Q9NQU5 whole entry, looked up): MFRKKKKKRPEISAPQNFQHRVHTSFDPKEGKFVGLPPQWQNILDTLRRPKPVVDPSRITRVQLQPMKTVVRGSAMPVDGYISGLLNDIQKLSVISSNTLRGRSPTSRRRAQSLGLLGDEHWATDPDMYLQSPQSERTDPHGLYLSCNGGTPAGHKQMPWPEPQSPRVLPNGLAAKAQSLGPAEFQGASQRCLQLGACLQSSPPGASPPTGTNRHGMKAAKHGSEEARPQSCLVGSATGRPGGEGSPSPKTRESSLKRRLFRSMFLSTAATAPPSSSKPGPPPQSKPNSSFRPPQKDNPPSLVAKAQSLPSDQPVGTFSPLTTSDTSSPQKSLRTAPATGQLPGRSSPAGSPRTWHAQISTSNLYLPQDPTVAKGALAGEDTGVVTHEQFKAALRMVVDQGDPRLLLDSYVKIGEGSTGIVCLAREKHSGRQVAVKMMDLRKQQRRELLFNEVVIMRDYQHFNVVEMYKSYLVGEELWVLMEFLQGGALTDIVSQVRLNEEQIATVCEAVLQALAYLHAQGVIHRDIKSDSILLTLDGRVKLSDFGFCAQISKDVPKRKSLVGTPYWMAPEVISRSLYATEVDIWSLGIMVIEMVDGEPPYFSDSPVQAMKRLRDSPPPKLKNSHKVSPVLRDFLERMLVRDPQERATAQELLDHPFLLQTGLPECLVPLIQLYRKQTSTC
structure (smiles),measurement,setting,value
CNC(=O)Nc1ccc(-c2nc(N3CC4CCC(C3)O4)c3cnn(C4CCC5(CC4)OCCO5)c3n2)cc1,% of control,[1],87%
same,% of inhibition,[2],0%
CC[C@@H]1[C@H](F)C(=O)N[C@@H]1COc1nccc2cc(C(N)=O)c(OC)cc12 [ZIMLOVISERTIB],% of inhibition,[3],-2.5%
COc1cc(Nc2nc(C)cc(-c3cnn4nc(OC)ccc34)n2)cc(C(F)(F)F)c1,% of control,[4],70%
CN(C)C/C=C/C(=O)Nc1ccc(C(=O)N2CCCC(Nc3ncc(Cl)c(-c4c[nH]c5ccccc45)n3)C2)cc1 (centres undefined),% of control,[5],100%
same,% of control,[6],91%
C=CC(=O)Nc1cc(-n2c(=O)ccc3cnc4ccc(-c5ccc(NS(C)(=O)=O)cc5)cc4c32)ccc1C,% of control,[7]; at 1 µM,100%
same,% of control,[7]; at 10 µM,100%
same,% of control,[8]; at 1 µM,80%
same,% of control,[8]; at 10 µM,81%
CNCCN1CCC(c2cc(CN(C)C(=O)c3cccc(Oc4ccccc4)c3)ccn2)CC1,IC50,[9],> 10 µM
CCC(=O)N1CCN(c2ccc(-n3c(=O)ccc4cnc5ccc(-c6cnc7ccccc7c6)cc5c43)cc2C(F)(F)F)CC1,% of control,[10],23%
O[C@H]1CC[C@H](Nc2ncc3nc(Nc4c(F)cc(F)cc4F)n([C@H]4CCOC4)c3n2)CC1,% of control,[11],79%
N#Cc1cccc(-c2c[nH]c3ncnc(N4CCOCC4)c23)c1,% of control,[12],66%
